The subject of experiment [1] is 6WI-1 mammary tumor cells. Put plainly: 6WI-1 mammary tumor in 15-day old mouse pups (6 day assay). The experiment is classed as in vivo. Set-up: % Inhibition Of Activity: 6WI-1 Pup Ascites: concentration or dose not given beside the values. To be noted: mouse pups. An excerpt: As an alternative model of the 6WI-I mammary tumor in adult mice, an inocula of 1×10^6 tumor cells injected into 15-day old mouse pups provided a 6 day rather than a 12 day assay and replicated the same tumor growth suppression by GIP.

The test system of experiment [2] is MCF-7 cells. Put plainly: MCF-7 cell proliferation assay (8 days, sulforhodamine B). The experiment is classed as cell-based, human. Here is the method:
MCF-7 cells were seeded at 25,000 cells/well in 48 well microtiter plates, and incubated for eight days in the various test and control reagents. […] Tumor cells were fixed after 8 days and analyzed for proliferation using the standard sulfarhodamine B staining procedure.

Experiment [3] has as its system cell cycle gene mRNA in MCF-7 cells. Briefly: Quantitative RT-PCR of cell cycle gene mRNA in MCF-7 cells. The experiment is classed as cell-based, human. The settings on record: for Cyclin E1 mRNA levels, Fold Decrease: eight day treatment. Here is the method: MCF-7 cell cultures grown in charcoal-stripped medium for 24 hours were seeded in 6-well plates and allowed to attach for 24 hours before treatment with 1×10^−7M of the cyclic, linear, or scrambled peptide, or a vehicle control for either 24 or 48 hours. Total RNA was isolated using TriReagent (Molecular Research Center Inc.) and quantified using the Genequant Pro (Ambersham Biosciences).
Standard curves for each primer were prepared and RNA samples were reverse transcribed and screened for the genes of interest using the One Step RT-PCR kit (Qiagen Inc.) in the Roche Light Cycler. Each sample was run in duplicate, and the entire experiment was replicated resulting in two independent samples for each treatment.
MCF-7 cell cultures were maintained in medium with charcoal-stripped bovine serum for 24 hours prior to seeding in 6-well plates. Seeding densities varied with treatment time and were aimed at obtaining 80% confluent cell cultures at the time of harvesting; after 24, 48, or 72 hours of treatment. RNA isolation was performed as above.
MCF-7 cell cultures were maintained as above and seeded in 6-well plates at a low seeding density to obtain cell cultures that were 80% confluent at the end of the treatment. Cell cultures were treated with various concentrations of the cyclic peptide 24 hours after seeding and then every two days until harvesting the cells at day eight post-treatment RNA was isolated from each treatment.
MCF-7 cells were seeded in DC5 medium into each well of two 6-well plates and allowed to attach for 24 hours at which point the seeding medium was exchanged for serum-free medium for 24 hours. After 24 hours in serum-free medium the cells were re-fed with DC5-stripped medium containing either the vehicle control (DMSO) or GIP (from 1×10^−14 to 1×10^−5 M). Cells were re-fed every 48 hours until they were harvested after eight days of treatment and RNA was isolated. The entire procedure was repeated resulting in two independent RNA isolations. The quantity and quality of RNA isolated from each eight-day exposure for each of the concentrations are shown below. The quantity and quality of RNA obtained from these exposures is sufficient to determine the RNA expression levels of numerous genes.
MCF-7 cells were seeded at 1×10^6 cells per well in 6-well plates. The cells were incubated for 192 h in medium containing charcoal/dextran-treated BCS and test compounds described above in the proliferation assay. Peptide was administered each day for 8 days. Total RNA was isolated using the RNAqueous 4 PCR kit (Ambion Inc.) or Tri Reagent (Molecular Research Center, Inc.). The quality of the RNAs were assessed by electrophoresis on denaturing agarose gels and were quantified at 260 nm with the Genequant Pro (Amersham Biosciences).
Details for the quantitative RT-PCR protocol were previously reported. Fasco et al., “Quantitative RNA-polymerase chain reaction-DNA analysis by capillary electrophoresis and laser-induced fluorescence” Anal. Biochem. 224:140-147 (1995). Briefly, RNA samples were reverse transcribed and amplified using the One Step RT-PCR kit (Qiagen Inc.) in the Roche Light Cycler. Total RNA was diluted to […] for all genes assayed except for 28S, which was diluted to 0.001 mg/ml. Diluted total RNA ([…]) was incubated with Qiagen RT-PCR master mix and was reverse transcribed for 30 min at 50° C. Following reverse transcription, samples were heated for 15 min at 95° C. to activate the HotStarTaq DNA polymerase and to simultaneously inactivate the reverse transcriptase. Gozgit et al., “Differential action of polycyclic aromatic hydrocarbons on endogenous estrogen-responsive genes and on a transfected estrogen-responsive reporter in MCF-7 cells” Toxicol. & Appl. Pharmacol. 196:58-67 (2004).
Gene-specific primers ([…]) were used for the following: Cyclin D3, D1, CDK2, CDK4, CDK6, RB1, Ki67, Cyclin E1, Cyclin BI, and with B-Actin serving as housekeeping (control) gene. […]

Where a SMILES comes first, the peptide text is derived from it.

For the molecule “KDFIHKQGVALQTMKQELINLVKELVKPQIEAVADFSGLL (listed as Homo sapiens) [P192, reference compound]”, the “% Inhibition Of Activity: 6WI-1 Pup Ascites” value in experiment [1] is 0%.
Consider `CC[C@H](C)[C@H](NC(=O)[C@@H]1CSSC[C@H](NC(=O)[C@H](C)NC(=O)[C@H](CC(C)C)NC(=O)[C@H](CC(C)C)NC(=O)[C@H](CCCCN)NC(=O)[C@H](CC(=O)O)NC(=O)[C@H](CCC(=O)O)NC(=O)[C@H](CO)NC(=O)[C@@H](N)CC(C)C)C(=O)NCC(=O)N[C@@H](CCC(=O)O)C(=O)NCC(=O)N[C@@H](C)C(=O)N[C@@H](C)C(=O)N[C@@H](CC(=O)O)C(=O)N[C@@H]([C@@H](C)CC)C(=O)N[C@@H]([C@@H](C)CC)C(=O)N[C@@H]([C@@H](C)CC)C(=O)NCC(=O)N[C@@H](Cc2c[nH]cn2)C(=O)N[C@@H](CC(C)C)C(=O)N1)C(=O)N[C@@H](CCCNC(=N)N)C(=O)N[C@@H](Cc1c[nH]cn1)C(=O)N[C@@H](CCC(=O)O)C(=O)N[C@@H](CCSC)C(=O)N[C@H](C(=O)N1CCC[C@H]1C(=O)N[C@H](C(=O)N[C@@H](CC(N)=O)C(=O)N1CCC[C@H]1C(=O)NCC(=O)N[C@H](C(=O)O)C(C)C)C(C)C)[C@@H](C)O` [Cyclic GIP] (HELM PEPTIDE1{L.S.E.D.K.L.L.A.C.G.E.G.A.A.D.I.I.I.G.H.L.C.I.R.H.E.M.T.P.V.N.P.G.V}$PEPTIDE1,PEPTIDE1,9:R3-22:R3$$$V2.0; N-terminus and C-terminus assumed), for which the “Growth suppression of MCF-7 cells” value in experiment [2] (8 days, 10^−8 to 10^−12 M) was in the range of 80 to 90%. Moreover, the “Most effective concentration for growth suppression” value in experiment [2] (culture day-8, tested 10^−5 to 10^−14 M) was 10^−8 M. In addition, the “mRNA levels of CDK2, CDK4, CDK6, Cyclin D1, CCND3, RB1” value in experiment [3] (1×10^−7 M, 24 or 48 hours) is on record as “did not result in significant changes in mRNA levels”. Besides, in experiment [3] (8 days), the “Cyclin D1 mRNA, fold increase” value is given as 1.71 fold. Also, the “Ki67, cdk2, cdk6, and Cyclin B1 mRNA levels” value in experiment [3] (8 days) was “no effect”; in experiment [3] (8 days, listed as cyclic peptide), “little changes in mRNA expression levels”. The “Rb1 mRNA, fold increase” value in experiment [3] (8 days) amounted to 2.4 fold. Also, the “cdk4 mRNA, fold increase” value in experiment [3] (8 days) amounted to 2.4 fold. For the same molecule, the “Expression of Cyclin D1, RB1 and CDK4” value in experiment [3] (8 days, 0.1 nM (Cyclin D1 and RB1) or 1 pM (CDK4)) was “increased about two-fold”. Also, in experiment [3] (8 days, 10^−8 to 10^−12 M), the “Cyclin-E mRNA, fold reduction” value is reported as 2.1 to 4.6 fold. In addition, the “Expression levels of Cyclin E1” value in experiment [3] (8 days, each of the five concentrations tested) is reported as “greatly reduced”. The “Cyclin E1 mRNA levels, Fold Decrease” value amounted to 4.58 fold in experiment [3] (concentration 1e−08 (10 nM)); 3.03 fold in experiment [3] (concentration 1e−09); 2.07 fold in experiment [3] (concentration 1e−10); 2.36 fold in experiment [3] (concentration 1e−11); 3.26 fold in experiment [3] (concentration 1e−12 (1 pM)).

These data come from patent publication US20060111289A1, “Compositions and methods of using Alpha-fetoprotein growth inhibitory peptides” (Serometrix, LLC,, priority 2004, published 2006).
